Measurements taken from ChEMBL document CHEMBL1156622, “1,3,4-Oxadiazole-3(2H)-carboxamide derivatives as potential novel class of monoamine oxidase (MAO) inhibitors: synthesis, evaluation, and role of urea moiety” (Bioorg Med Chem, 2008).

Assays:
Rattus norvegicus [1] = organism: Rattus norvegicus; test: Inhibition of Monoamine oxidase in rat brain mitochondria at 0.01 mM by kynuramine fluorimetric assay
Rattus norvegicus [2] = organism: Rattus norvegicus; test: Inhibition of Monoamine oxidase in rat brain mitochondria at 0.1 mM by kynuramine fluorimetric assay
Rattus norvegicus [3] = organism: Rattus norvegicus; test: Inhibition of Monoamine oxidase in rat brain mitochondria at 1 mM by kynuramine fluorimetric assay
Rattus norvegicus [4] = organism: Rattus norvegicus; test: Inhibition of Monoamine oxidase in rat brain mitochondria at 0.008 mM by kynuramine fluorimetric assay
Rattus norvegicus [5] = organism: Rattus norvegicus; test: Inhibition of Monoamine oxidase in rat brain mitochondria at 0.08 mM by kynuramine fluorimetric assay
Rattus norvegicus [6] = organism: Rattus norvegicus; test: Inhibition of Monoamine oxidase in rat brain mitochondria at 0.8 mM by kynuramine fluorimetric assay

SMILES | inhibition (Rattus norvegicus [1]) | inhibition (Rattus norvegicus [2]) | inhibition (Rattus norvegicus [3]) | inhibition (Rattus norvegicus [4]) | inhibition (Rattus norvegicus [5]) | inhibition (Rattus norvegicus [6])
CCCCC1(CCCC)OC(c2ccc3c(c2)OCO3)=NN1C(=O)NC(=O)c1c(F)cccc1F | 8.37% | 41% | 78.4% |  |  | 
CCCCC1(CCCC)OC(c2ccc3c(c2)OCO3)=NN1C(C)=O |  |  |  | 1.21% | 0% | 0%
CCCCC1(CCCC)OC(c2ccco2)=NN1C(=O)NC(=O)c1c(F)cccc1F | 1.84% | 23.7% | 75.1% |  |  | 
CCCCC1(CCCC)OC(c2cc(C)cc(C)c2)=NN1C(C)=O |  |  |  | 2.89% | 17.7% | 42.8%
CCCCC1(CCCC)OC(c2cc(C)cc(C)c2)=NN1C(=O)NC(=O)c1c(F)cccc1F | 5.85% | 26.2% | 69.2% |  |  | 
CCCCC1(CCCC)OC(c2ccc3c(c2)OCO3)=NN1C(=O)NC(=O)c1ccccc1Cl | 6.73% | 27.5% | 75.4% |  |  | 
CCCCC1(CCCC)OC(c2ccc(Cl)cc2Cl)=NN1C(=O)NC(=O)c1cc(F)c(OC)c(F)c1F | 2.92% | 25.9% | 81.8% |  |  | 
CCCCC1(CCCC)OC(c2ccc(Cl)cc2Cl)=NN1C(=O)NC(=O)c1c(F)cccc1F | 5.43% | 25.1% | 72.5% |  |  | 
CCCCC1(CCCC)OC(c2cc(OC)c(OC)c(OC)c2)=NN1C(C)=O |  |  |  | 0% | 0% | 0%
CCCCC1(CCCC)OC(c2ccc(Cl)cc2Cl)=NN1C(=O)NC(=O)c1ccccc1Cl | 5.86% | 24.9% | 78% |  |  | 
CCCCC1(CCCC)OC(c2cc(OC)c(OC)c(OC)c2)=NN1C(=O)NC(=O)c1c(F)cccc1F | 0% | 21.7% | 69.2% |  |  | 
CCCCC1(CCCC)OC(c2ccc(Cl)cc2)=NN1C(=O)NC(=O)c1c(F)cccc1F | 0% | 6.03% | 58.8% |  |  | 
CCCCC1(CCCC)OC(c2cc(C)cc(C)c2)=NN1C(=O)NC(=O)c1ccccc1Cl | 4.12% | 24.6% | 72.8% |  |  | 
